Data reported in patent US9315517B2, “Imidazol-piperidinyl derivatives as modulators of kinase activity” (Merck Patent GmbH, priority 2012, dated 2016).

Assays:
[1] = biological target: T1, P70S6K (T412E mutant, Millipore) (Homo sapiens, UniProt P23443, T412E); assay: P70S6K enzyme assay; type: biochemical; conditions: enzyme inhibition; 24 μM ATP, 90 min at 25° C., Caliper mobility shift
T1 construct: purchased Millipore
Experimental: (§1) The IC50 values reported for the compounds in the Experimental section were derived from the following protocol for the p70S6K and AKT enzyme assays.
P70S6K inhibitor compounds were diluted and plated in 96 well plates. A reaction mixture including the following components was then added to the compound plate to initiate the enzyme reaction; P70S6K (3 nM, T412E mutant, Millipore) was mixed with 24 μM ATP in an assay buffer containing 100 mM Hepes (pH 7.5), 5 mM MgCl2, 1 mM DTT, 0.015% Brij and 1 μM of the substrate peptide FITC-AHA-AKRRRLSSLRA-OH (derived from the S6 ribosomal protein sequence, FITC=fluorescein isothiocyanate, AHA=6-aminohexanoic acid). The reaction was incubated for 90 min at 25° C., before the addition of 10 mM EDTA to stop the reaction. The proportion of substrate and product (phosphorylated) peptide was analysed on a Caliper Life Sciences Lab Chip 3000, using a pressure of −1.4 psi, and upstream and downstream voltages of −3000 and −700 respectively. Product peaks were resolved before substrate peaks on the resulting chromatograms.

[2] = biological target: T2, His-AKT (Full Length) (Homo sapiens, UniProt P31749); assay: AKT enzyme assay; type: biochemical; conditions: enzyme inhibition; 160 uM ATP, 90 min at 25° C., Caliper mobility shift
T2 construct: 0.1 ng/μl His-AKT (Full Length); His; purchased Invitrogen P2999
Experimental: as §1
A TTP Mosquito liquid handling instrument was used to place 125 nl of the appropriate concentration of inhibitor in 100% DMSO (for a dose response curve calculation) into each well of a 384-well plate. To this reaction components were added to a final volume of 12.5 μl: • 0.1 ng/μl His-AKT (Full Length), (Invitrogen, Part # P2999, Lot # 641228C). • 160 uM ATP (Fluke, 02055) • 1 mM DTT (Sigma, D0632) • 1 mM MgCl2 (Sigma, M1028) • 1 μM substrate peptide (sequence FITC-AHA-GRPRTSSFAEG-NH2), synthesized by Tufts Peptide Synthesis service. • 100 mM HEPES pH 7.5 (Calbiochem, 391338) • 0.015% Brij-35 (Sigma, B4184)
The reaction was incubated for 90 min at 25° C., and then stopped by the addition of 70 μl of Stop buffer (100 mM HEPES pH 7.5, 0.015% Brij-35, 10 mM EDTA (Sigma, E7889)).
The plate was read on a Caliper LC 3000 in an Off-Chip mobility shift assay format, using the following parameters for a 12-sipper chip: screening pressure −2.3 psi, upstream voltage −500, and downstream voltage −3000. These conditions caused unphosphorylated substrate and phosphorylated product peptide to resolve as separate peaks allowing direct measurement of percentage of conversion of substrate to product. The percent conversion was plotted against concentration of inhibitor to produce a sigmoidal dose response curve, from which an IC50 was calculated.

T1 sequence (P23443 whole entry T412E): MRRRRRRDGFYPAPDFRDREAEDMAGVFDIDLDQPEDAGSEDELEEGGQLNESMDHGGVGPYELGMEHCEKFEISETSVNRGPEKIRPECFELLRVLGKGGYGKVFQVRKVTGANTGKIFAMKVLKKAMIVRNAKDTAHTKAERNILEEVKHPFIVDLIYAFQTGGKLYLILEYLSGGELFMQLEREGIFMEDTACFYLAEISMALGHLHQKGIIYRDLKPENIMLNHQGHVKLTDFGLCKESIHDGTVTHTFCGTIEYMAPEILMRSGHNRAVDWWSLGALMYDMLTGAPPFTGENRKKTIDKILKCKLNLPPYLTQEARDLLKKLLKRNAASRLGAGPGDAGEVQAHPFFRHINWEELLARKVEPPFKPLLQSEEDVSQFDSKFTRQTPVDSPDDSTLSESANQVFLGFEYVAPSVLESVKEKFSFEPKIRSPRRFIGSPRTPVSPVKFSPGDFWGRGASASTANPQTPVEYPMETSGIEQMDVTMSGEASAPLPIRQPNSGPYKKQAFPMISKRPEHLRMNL
T2 sequence (P31749 whole entry): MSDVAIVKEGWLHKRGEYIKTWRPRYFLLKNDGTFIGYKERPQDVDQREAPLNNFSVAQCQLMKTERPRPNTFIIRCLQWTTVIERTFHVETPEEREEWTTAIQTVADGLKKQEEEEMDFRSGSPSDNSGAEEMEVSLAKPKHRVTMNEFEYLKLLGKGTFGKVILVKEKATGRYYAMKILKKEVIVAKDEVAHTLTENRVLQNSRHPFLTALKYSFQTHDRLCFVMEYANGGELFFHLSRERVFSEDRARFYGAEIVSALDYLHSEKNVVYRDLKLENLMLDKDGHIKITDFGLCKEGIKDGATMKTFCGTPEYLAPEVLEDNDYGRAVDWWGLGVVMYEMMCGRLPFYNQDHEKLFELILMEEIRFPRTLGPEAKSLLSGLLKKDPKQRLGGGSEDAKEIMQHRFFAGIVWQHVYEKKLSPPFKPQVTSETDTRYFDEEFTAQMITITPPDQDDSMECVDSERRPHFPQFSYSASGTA

Row | IC50 [1] [nM] | IC50 [2] [nM] | SMILES
1 | < 25 | < 25 | COc1cc(-c2cn(CCN(C)C)c(C3CCN(c4ncnc5c4CCN5)CC3)n2)ccc1F [Compound A25, {2-[2-[1-(6,7-Dihydro-5H-pyrrolo[2,3-d]pyrimidin-4-yl)-piperidin-4-yl]-4-(4-fluoro-3-methoxy-phenyl)-imidazol-1-yl]-ethyl}-dimethylamine]
2 | < 25 | < 25 | CN(C)CCn1cc(-c2ccc(F)c(Cl)c2)nc1C1CCN(c2ncnc3c2CCN3)CC1 [Compound A26, (2-{4-(3-Chloro-4-fluoro-phenyl)-2-[1-(6,7-dihydro-5H-pyrrolo[2,3-d]pyrimidin-4-yl)-piperidin-4-yl]-imidazol-1-yl}-ethyl)-dimethylamine]
3 | < 25 | 26 to 100 | CN(C)CCn1cc(-c2ccnc(C(F)(F)F)c2)nc1C1CCN(c2ncnc3c2CCN3)CC1 [Compound A27, {2-[2-[1-(6,7-Dihydro-5H-pyrrolo[2,3-d]pyrimidin-4-yl)-piperidin-4-yl]-4-(2-trifluoromethyl-pyridin-4-yl)-imidazol-1-yl]-ethyl}-dimethylamine]
4 | < 25 | < 25 | Fc1ccc(-c2cn(CCN3CCC3)c(C3CCN(c4ncnc5c4CCN5)CC3)n2)cc1C(F)(F)F [Compound A28, 4-{4-[1-(2-Azetidin-1-yl-ethyl)-4-(4-fluoro-3-trifluoromethyl-phenyl)-1H-imidazol-2-yl]-piperidin-1-yl}-6,7-dihydro-5H-pyrrolo[2,3-d]pyrimidine]
5 | < 25 | < 25 | Cc1cc(-c2cn(CCN3CCC3)c(C3CCN(c4ncnc5c4CCN5)CC3)n2)ccc1F [Compound A29, 4-{4-[1-(2-Azetidin-1-yl-ethyl)-4-(4-fluoro-3-methyl-phenyl)-1H-imidazol-2-yl]-piperidin-1-yl}-6,7-dihydro-5H-pyrrolo[2,3-d]pyrimidine]
6 | < 25 | < 25 | FC(F)(F)c1cc(-c2cn(CCN3CCC3)c(C3CCN(c4ncnc5c4CCN5)CC3)n2)ccn1 [Compound A30, 4-{4-[1-(2-Azetidin-1-yl-ethyl)-4-(2-trifluoromethyl-pyridin-4-yl)-1H-imidazol-2-yl]-piperidin-1-yl}-6,7-dihydro-5H-pyrrolo[2,3-d]pyrimidine]
7 | < 25 | < 25 | Fc1ccc(-c2cn(CCN3CCC3)c(C3CCN(c4ncnc5c4CCN5)CC3)n2)cc1Cl [Compound A31, 4-{4-[1-(2-Azetidin-1-yl-ethyl)-4-(3-chloro-4-fluoro-phenyl)-1H-imidazol-2-yl]-piperidin-1-yl}-6,7-dihydro-5H-pyrrolo[2,3-d]pyrimidine]
8 | < 25 | < 25 | CN(C)CCn1cc(-c2ccc(F)c(C(F)(F)F)c2)nc1C1CCN(c2ncnc3c2CCCN3)CC1 [Compound A32, (2-{4-(4-Fluoro-3-trifluoromethyl-phenyl)-2-[1-(5,6,7,8-tetrahydro-pyrido[2,3-d]pyrimidin-4-yl)-piperidin-4-yl]-imidazol-1-yl}-ethyl)-dimethylamine]
9 | < 25 | < 25 | Cc1cc(-c2cn(CCN(C)C)c(C3CCN(c4ncnc5c4CCCN5)CC3)n2)ccc1F [Compound A33, (2-{4-(4-Fluoro-3-methyl-phenyl)-2-[1-(5,6,7,8-tetrahydro-pyrido[2,3-d]pyrimidin-4-yl)-piperidin-4-yl]-imidazol-1-yl}-ethyl)-dimethylamine]
10 | < 25 | < 25 | COc1cc(-c2cn(CCN(C)C)c(C3CCN(c4ncnc5c4CCCN5)CC3)n2)ccc1F [Compound A34, (2-{4-(4-Fluoro-3-methoxy-phenyl)-2-[1-(5,6,7,8-tetrahydro-pyrido[2,3-d]pyrimidin-4-yl)-piperidin-4-yl]-imidazol-1-yl}-ethyl)-dimethylamine]
11 | < 25 | < 25 | CN(C)CCn1cc(-c2ccc(F)c(Cl)c2)nc1C1CCN(c2ncnc3c2CCCN3)CC1 [Compound A35, (2-{4-(3-Chloro-4-fluoro-phenyl)-2-[1-(5,6,7,8-tetrahydro-pyrido[2,3-d]pyrimidin-4-yl)-piperidin-4-yl]-imidazol-1-yl}-ethyl)-dimethylamine]
12 | < 25 | < 25 | CN(C)CCn1cc(-c2ccnc(C(F)(F)F)c2)nc1C1CCN(c2ncnc3c2CCCN3)CC1 [Compound A36, Dimethyl-{2-[2-[1-(5,6,7,8-tetrahydro-pyrido[2,3-d]pyrimidin-4-yl)-piperidin-4-yl]-4-(2-trifluoromethyl-pyridin-4-yl)-imidazol-1-yl]-ethyl}-amine]
13 | < 25 | < 25 | Fc1ccc(-c2cn(CCN3CCC3)c(C3CCN(c4ncnc5c4CCCN5)CC3)n2)cc1C(F)(F)F [Compound A37, 4-{4-[1-(2-Azetidin-1-yl-ethyl)-4-(4-fluoro-3-trifluoromethyl-phenyl)-1H-imidazol-2-yl]-piperidin-1-yl}-5,6,7,8-tetrahydro-pyrido[2,3-d]pyrimidine]
14 | < 25 | < 25 | Fc1ccc(-c2cn(CCN3CCC3)c(C3CCN(c4ncnc5c4CCCN5)CC3)n2)cc1Cl [Compound A38, 4-{4-[1-(2-Azetidin-1-yl-ethyl)-4-(3-chloro-4-fluoro-phenyl)-1H-imidazol-2-yl]-piperidin-1-yl}-5,6,7,8-tetrahydro-pyrido[2,3-d]pyrimidine]
15 | < 25 | < 25 | O=C1CNc2ncnc(N3CCC(c4nc(-c5ccc(F)c(C(F)(F)F)c5)cn4CCN4CCCC4)CC3)c2N1 [Compound A39, 4-{4-[4-(4-fluoro-3-trifluoromethyl-phenyl)-1-(2-pyrrolidin-1-yl-ethyl)-1H-imidazol-2-yl]-piperidin-1-yl}-7,8-dihydro-5H-pteridin-6-one]
16 | < 25 | < 25 | O=C1CNc2ncnc(N3CCC(c4nc(-c5ccc(F)c(C(F)(F)F)c5)cn4CCN4CCC4)CC3)c2N1 [Compound A40, 4-{4-[4-(4-fluoro-3-trifluoromethyl-phenyl)-1-(2-azetidin-1-yl-ethyl)-1H-imidazol-2-yl]-piperidin-1-yl}-7,8-dihydro-5H-pteridin-6-one]
17 | < 25 | < 25 | CN(C)CCn1cc(-c2ccc(F)c(C(F)(F)F)c2)nc1C1CCN(c2ncnc3c2NC(=O)CN3)CC1 [Compound A41, 4-{4-[4-(4-fluoro-3-trifluoromethyl-phenyl)-1-(2-dimethyamine-1-yl-ethyl)-1H-imidazol-2-yl]-piperidin-1-yl}-7,8-dihydro-5H-pteridin-6-one]
18 | < 25 | 26 to 100 | Cc1cc(-c2cn(CCN3CCC3)c(C3CCN(c4ncnc5c4NC(=O)CN5)CC3)n2)ccc1F [Compound A42, 4-{4-[4-(4-fluoro-3-methyl-phenyl)-1-(2-azetidin-1-yl-ethyl)-1H-imidazol-2-yl]-piperidin-1-yl}-7,8-dihydro-5H-pteridin-6-one]
19 | < 25 | 26 to 100 | O=C1CNc2ncnc(N3CCC(c4nc(-c5ccnc(C(F)(F)F)c5)cn4CCN4CCC4)CC3)c2N1 [Compound A43, 4-{4-[1-(2-azetidin-1-yl-ethyl)-4-(2-trifluoromethyl-pyridin-4-yl)-1H-imidazol-2-yl]-piperidin-1-yl}-7,8-dihydro-5H-pteridin-6-one]
20 | < 25 | 101 to 500 | O=C1CNc2ncnc(N3CCC(c4nc(-c5ccnc(C6CC6)c5)cn4CCN4CCC4)CC3)c2N1 [Compound A44, 4-{4-[1-(2-azetidin-1-yl-ethyl)-4-(2-cyclopropyl-pyridin-4-yl)-1H-imidazol-2-yl]-piperidin-1-yl}-7,8-dihydro-5H-pteridin-6-one]
21 | 101 to 500 | 501 to 1000 | O=C1CNc2ncnc(N3CCC(c4nc(-c5ccccc5)cn4CCN4CCCC4)CC3)c2N1 [Compound A45, 4-{4-[4-Phenyl-1-(2-pyrrolidin-1-yl-ethyl)-1H-imidazol-2-yl]-piperidin-1-yl}-7,8-dihydro-5H-pteridin-6-one]
22 | 26 to 100 | 101 to 500 | CN(C)CCn1cc(-c2ccc(F)c(F)c2)nc1C1CCN(c2ncnc3c2NC(=O)CN3)CC1 [Compound A46, 4-{4-[4-(3,4-DifluoroPhenyl)-1-(2-dimethylamin-1-yl-ethyl)-1H-imidazol-2-yl]-piperidin-1-yl}-7,8-dihydro-5H-pteridin-6-one]
